# Data reported in the supplement of paper PMC11562712.
# Where a name gives a salt, the structure may show the parent alone.
# Experiment: first-order primary biodegradation rate constant k (sorption-corrected, fDis-corrected) (d-1); higher = faster biodegradation
# Method: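 Modified OECD 309 water-sediment test. River water plus sieved sediment (50 g wet solid/L) from European river segments (DE, CH, ES, EL) was spiked with a mixture of 129 compounds at 1 ug/L each and incubated in the dark at river temperature for 10 days. The water phase was analysed by UHPLC-Orbitrap-MS. The first-order primary biodegradation rate constant k (d-1) is k_observed, corrected for dissipation in sterile sorption controls and divided by the dissolved fraction fDis; it was fitted over 3 replicate incubations. Invalid fits (p > 0.05, n < 5, not available, concentration increase) are excluded.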
# [1] = river segment: Germany (DE) T_Contam, incubation temperature 24 °C
# [2] = river segment: Greece (EL) A_Contam, incubation temperature 19 °C
# [3] = river segment: Greece (EL) L_Contam, incubation temperature 19 °C
# [4] = river segment: Spain (ES) C_Contam, incubation temperature 24 °C
# [5] = river segment: Spain (ES) L_Contam, incubation temperature 24 °C
# [6] = river segment: Germany (DE) H_Contam, incubation temperature 24 °C
# [7] = river segment: Germany (DE) T_Pris, incubation temperature 24 °C
# [8] = river segment: Greece (EL) G_Pris, incubation temperature 19 °C
# [9] = river segment: Spain (ES) B_Contam, incubation temperature 24 °C
# [10] = river segment: Spain (ES) F_Pris_Salt, incubation temperature 24 °C
# [11] = river segment: Switzerland (CH) C_Contam, incubation temperature 17 °C
# [12] = river segment: Switzerland (CH) R_Contam, incubation temperature 17 °C
# [13] = river segment: Switzerland (CH) U_Contam, incubation temperature 17 °C
# [14] = river segment: Switzerland (CH) U_Pris, incubation temperature 17 °C
# [15] = river segment: Greece (EL) G_Contam, incubation temperature 19 °C
SMILES,first-order primary biodegradation rate constant k [1],first-order primary biodegradation rate constant k [2],first-order primary biodegradation rate constant k [3],first-order primary biodegradation rate constant k [4],first-order primary biodegradation rate constant k [5],first-order primary biodegradation rate constant k [6],first-order primary biodegradation rate constant k [7],first-order primary biodegradation rate constant k [8],first-order primary biodegradation rate constant k [9],first-order primary biodegradation rate constant k [10],first-order primary biodegradation rate constant k [11],first-order primary biodegradation rate constant k [12],first-order primary biodegradation rate constant k [13],first-order primary biodegradation rate constant k [14],first-order primary biodegradation rate constant k [15]
NC(=O)N1c2ccccc2C=Cc2ccccc21 [Carbamazepine],0.0377,0.00808,0.00883,0.00861,0.711,–,–,–,–,–,–,–,–,–,–
Cc1ccc(-c2nc3ccc(C)cn3c2CC(=O)N(C)C)cc1 [Zolpidem],0.672,0.464,2.27,0.0357,0.761,0.202,0.0723,0.19,0.709,0.00549,0.0346,0.0249,0.0604,0.135,–
Cn1c(=O)c2c(ncn2C)n(C)c1=O [Caffeine],0.415,0.894,0.276,0.276,0.895,0.262,0.0734,0.0394,1.52,0.215,0.172,0.144,0.368,0.69,0.085
CC(C)NCC(O)COc1ccc(COCCOC(C)C)cc1 (stereo not drawn) [Bisoprolol],0.352,–,1.27,0.414,0.28,0.341,0.336,0.293,0.569,0.144,0.326,0.309,0.473,0.772,0.37
COc1c(Cl)ccc(Cl)c1C(=O)O [Dicamba],0.109,–,–,–,0.229,–,–,–,–,0.107,0.0368,–,0.0133,0.1,–
CCNc1nc(NC(C)(C)C)nc(SC)n1 [Terbutryn],0.0714,0.0617,–,–,0.134,–,–,–,–,–,–,–,0.116,0.068,0.247
Cc1ccc(C(C)NC(=O)[C@@H](NC(=O)OC(C)C)C(C)C)cc1 (stereo partly drawn) [Iprovalicarb],0.275,0.258,0.096,0.115,0.203,0.251,0.0361,0.138,0.211,–,0.0585,0.123,0.167,0.146,0.16
NS(=O)(=O)c1cc(C2(O)NC(=O)c3ccccc32)ccc1Cl (stereo not drawn) [Chlorthalidone],0.0182,–,–,–,–,0.0136,–,–,–,–,–,–,–,–,–
CC(C(=O)O)c1cccc(C(=O)c2ccccc2)c1 (stereo not drawn) [Ketoprofen],0.441,0.537,0.285,0.269,0.368,0.108,0.226,0.36,0.235,0.0247,1.07,0.829,1.21,2.62,0.0301
CCc1cccc(CC)c1N(COC)C(=O)CCl [Alachlor],0.612,–,0.568,–,0.12,0.0727,0.105,0.387,0.115,–,0.0903,0.223,0.349,–,–
c1ccc([C@H]2CN3CCSC3=N2)cc1 [Levamisole],0.512,0.193,0.21,0.0263,0.0585,–,0.0857,0.133,0.0276,–,0.0196,0.0447,0.0845,0.0682,–

# Second part, the compound after the results:
first-order primary biodegradation rate constant k [1],first-order primary biodegradation rate constant k [2],first-order primary biodegradation rate constant k [3],first-order primary biodegradation rate constant k [4],first-order primary biodegradation rate constant k [5],first-order primary biodegradation rate constant k [6],first-order primary biodegradation rate constant k [7],first-order primary biodegradation rate constant k [8],first-order primary biodegradation rate constant k [9],first-order primary biodegradation rate constant k [10],first-order primary biodegradation rate constant k [11],first-order primary biodegradation rate constant k [12],first-order primary biodegradation rate constant k [13],first-order primary biodegradation rate constant k [14],first-order primary biodegradation rate constant k [15],SMILES
–,0.431,1.57,0.383,0.758,0.173,0.612,0.704,0.192,0.726,1.11,1.65,2.23,2.52,0.993,COc1cc(Cc2cnc(N)nc2N)cc(OC)c1OC [Trimethoprim]
–,0.821,–,–,–,–,–,–,–,–,–,0.0625,–,–,–,NC(=O)c1cccnc1 [Nicotinamide]
0.145,0.115,0.0444,0.248,0.413,–,0.00509,0.102,0.76,0.076,–,0.141,0.0814,–,0.0195,COc1ccc2cc([C@H](C)C(=O)O)ccc2c1 [Naproxen]
0.416,0.0824,0.123,–,1.27,0.129,–,0.237,1.13,–,0.0158,0.00496,–,0.0859,0.0668,COc1cc(NS(=O)(=O)c2ccc(N)cc2)nc(OC)n1 [Sulfadimethoxine]
0.382,0.161,0.195,–,1.07,0.0977,–,0.441,–,–,0.0233,–,–,0.0441,0.396,COc1ccc(NS(=O)(=O)c2ccc(N)cc2)nn1 [Sulfamethoxypyridazine]
0.275,–,–,–,0.339,–,0.0369,–,–,–,0.00672,0.0597,0.127,0.0638,–,CCOC(=O)CC(O)(CC(=O)OCC)C(=O)OCC [Triethyl citrate]
